Results on 3 compounds are retold here after US20050008684A1, “Method of treatment for acne, rosacea and ulcers with taurolidine and/or taurultam in a pharmaceutical composition” (priority 2003, published 2005).

Data set [1] deals with impetiginous atopical eczema on the hands and feet. Kind of data set: case treatment of atopic eczema, topical. Type of data set: in vivo, human. The note with it: same patient, before taurolidine treatment. Here is the method:
The patient was released with a prescription to apply Triclosan in a Dermatop-base cream upon need. The pustules were treated with methylrosaniline chloride solution. […] Further treatments included application of Dermatop-cream, Polyvidon-Iodine solution, crystal violet solution, and Nystatin-suspension. […] Treatment was then continued for another week at reduced frequency application such as once daily.

The subject of data set [2] is acne, inflamed lesions in the skin. Put plainly: topical treatment of acne. Type of data set: in vivo, human.
A further data set deals with skin sensitization. Kind of data set: Magnusson & Kligman-Test. Type of data set: in vivo.
For a further data set, the system named is Staphylococcus aureus. The note with it: cited from earlier work.

In the case of `COCC1=C(C(=O)O)N2C(=O)[C@@H](NC(=O)/C(=N\OC)c3csc(N)n3)[C@H]2SC1` [Cefpodoxim], the “condition under earlier therapy of atopical eczema” value in data set [1] is “improved somewhat”.

In the case of `C[C@]12C=CC(=O)C=C1CC[C@@H]1[C@@H]2[C@@H](O)C[C@@]2(C)[C@H]1CC[C@]2(O)C(=O)CO` [Prednisolon], in data set [1], the “condition under earlier therapy of atopical eczema” value is reported as “the atopical eczema was not completely gone”.

Take `O=S1(=O)CCN(CN2CCS(=O)(=O)NC2)CN1` [taurolidine, 4,4′-methylenebis-(1,2,4-thiadiazine-1,1-dioxide)]: the “local irritations and/or allergies” value in data set [2] (2% taurolidine gel or emulsion on skin of affected patient) is recorded as “no local irritations and/or allergies could be observed”. The “side effects such as flaking, stinging and itching” value in data set [2] (2% taurolidine gel or emulsion, topical) is “No side effects”. The “reduction of inflamed lesions in the skin” value in data set [2] (hydroxyethylcellulose gel (or W/O or O/W emulsion) with 2% taurolidine, several days after application) was 50%. The sensitization classification entry with skin sensitization is given as “non-sensitizing agent”. In addition, the “minimal threshold of inhibitory concentration” value in the data set with Staphylococcus aureus was 0.3 to 0.6 mg/mL.
